Source: PubChem BioAssay AID588780 (Sanford-Burnham Center for Chemical Genomics, 2011)
Activity calls are given as the source filed them.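 The calls were made as follows: active = compounds whose fitted half-maximal concentration in the cell-protection dose series is at or below a set limit; inactive = the rest.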

The molecules below were run on H9c2 cardiomyocytes, 2-deoxyglucose stress, ATP luminescence, 2 h (assay: H9c2 cell survival under 2-deoxyglucose stress – uHTS hits, dose response (AID 588780)).

Row | SMILES | IC50
1 | COc1ccc2[nH]c(=O)c(CN(c3ccccc3OC)S(=O)(=O)c3ccccc3)cc2c1 | 15.1 µM
2 | COc1ccccc1CN(Cc1nc2ccccc2c(=O)[nH]1)S(=O)(=O)c1ccc2ccccc2c1 | > 79 µM (inactive)
3 | COc1cc(OC)cc(C(=O)Nc2ccc(-c3nc4ccccc4o3)cc2)c1 | > 79 µM (inactive)
4 | COC(=O)Oc1ccc(/C=C/C(=O)OC(C)C)cc1OC(=O)OC | 63.1 µM (inactive)
5 | CCN(C[C@H]1N[C@@](C)(C(=O)OC)[C@H]2C(=O)N(Cc3ccccc3)C(=O)[C@@H]12)C(=O)c1ccc(C(C)(C)C)cc1 | > 79 µM (inactive)
6 | N#CC1(NC(=O)COC(=O)Cn2[nH]c(=O)c3ccccc3c2=O)CCCCC1 | > 79 µM (inactive)
7 | O=C(N/N=C/c1ccccn1)c1cc(-c2cccc3ccccc23)n[nH]1 | > 79 µM (inactive)
8 | Oc1c(Cl)cc(Cl)cc1C=Nc1ccc(N2CCOCC2)cc1 | 31.5 µM (inactive)
9 | CC(C)NC(=O)COC(=O)Cn1[nH]c(=O)c2ccccc2c1=O | > 79 µM (inactive)
10 | O=P(Nc1ccccc1)(Oc1ccccc1)Oc1ccccc1 | > 79 µM (inactive)
11 | COc1ccc(C2CC(c3cccs3)n3nc(N)nc3N2)cc1 (centres undefined) | > 79 µM (inactive)
12 | CCCNC(=O)c1ccc2c(=O)c(O)c(-c3ccc(C)cc3)[nH]c2c1 | > 79 µM (inactive)
13 | CSc1nnc(NC(=O)c2cc3ccccc3oc2=O)s1 | > 79 µM (inactive)
14 | O=C(Nc1ccccc1)c1nc[nH]c1C(=O)NCCNC(=O)c1[nH]cnc1C(=O)Nc1ccccc1 | > 79 µM (inactive)
15 | COc1ccc(-c2oc3ncnc(NCCN4CCOCC4)c3c2-c2ccc(OC)cc2)cc1 | 34.3 µM (inactive)
16 | O=C(CN1CCN(Cc2ccccc2)CC1)Nc1ccc([N+](=O)[O-])cc1C(=O)Nc1ccccc1F | 35.6 µM (inactive)
17 | CCOC(=O)C1=C(C)Nc2ccccc2N=C1NC(=O)c1oc2ccccc2c1COC | > 79 µM (inactive)
18 | COc1nnc(-c2ccc(C)c(S(=O)(=O)NCCO)c2)c2ccccc12 | > 79 µM (inactive)
19 | O=C(Nc1nnc(-c2ccco2)o1)c1ccc2ccccc2c1 | > 79 µM (inactive)
20 | COc1ccc(-c2ccc3c(c2)S(=O)(=O)c2cccc(C(=O)N4CCN(c5c(Cl)cncc5Cl)CC4)c2C3=O)cc1OC | > 79 µM (inactive)
21 | O=C1C2C3C=CC(CC3)C2C(=O)N1c1cccc(Br)c1 (centres undefined) | > 79 µM (inactive)
22 | O=C1c2ccccc2NC(c2ccc(Cl)cc2Cl)N1O (centres undefined) | 35 µM (inactive)
23 | O=C(COC(=O)CCc1nc2ccccc2c(=O)[nH]1)NCc1ccc(F)cc1 | > 79 µM (inactive)
24 | CCC1(CC)NC(=O)N(CC(=O)OCC(=O)Nc2ccccc2[N+](=O)[O-])C1=O | > 79 µM (inactive)

Row | SMILES | IC50
25 | Cc1nc2ccccc2c(=O)[nH]1 | > 79 µM (inactive)
26 | CN(CC(=O)Nc1ccc(F)cc1)C(=O)CCc1nc2ccccc2c(=O)[nH]1 | > 79 µM (inactive)
27 | O=C(Nc1nc(-c2ccc(S(=O)(=O)N3CCCC3)cc2)cs1)C1COc2ccccc2O1 (centres undefined) | > 79 µM (inactive)
28 | O=C(c1ccco1)N1CCN(C(=O)c2cc(-c3ccncc3)nc3ccc(Br)cc23)CC1 | 13.8 µM
29 | O=C(Nc1ccc2oc(-c3ccccc3F)nc2c1)c1ccc([N+](=O)[O-])o1 | > 79 µM (inactive)
30 | O=C(Cn1[nH]c(=O)c2ccccc2c1=O)NC1CCN(Cc2ccccc2)CC1 | > 79 µM (inactive)
31 | O=C1N[C@H](Cc2ccccc2)COC(=O)[C@@H](Cc2ccc(F)cc2)C/C=C\C[C@H]1CC(=O)N(CCO)Cc1ccccc1 | 20.5 µM
32 | C/C(=N\NC(=O)c1c(Br)c(C)nn1C)c1ccc(NC(=O)c2ccoc2C)cc1 | > 79 µM (inactive)
33 | COc1cccc(-c2cnc3c(NC=O)cc(-c4cccc(NC(C)=O)c4)cn23)c1 | > 79 µM (inactive)
34 | CCOc1ccc(-n2cc(-c3ccccc3)c3c(N4CCOCC4)ncnc32)cc1 | > 79 µM (inactive)
35 | Cc1cc(N)n(-c2nc(-c3cccnc3)nc3ccccc23)n1 | 19.8 µM
36 | COc1ccc2[nH]c(=O)c(CNc3ccc(C)c(C)c3)cc2c1 | 49.8 µM (inactive)
37 | COc1cc(NC(=O)c2ccc(-c3cn[nH]c3)c3ccoc23)cc(OC)c1OC | 10.4 µM
38 | CCOC(=O)C1CCN(c2cc3c(cc2NC(=O)c2ccc(F)cc2)n(C)c(=O)n3C)CC1 | 21.2 µM
39 | O=C(N/N=C\c1ccccn1)C1COc2cc3ccccc3cc2O1 (centres undefined) | 8.87 µM
40 | CC1(C(=O)Nc2cccc(OC(F)(F)F)c2)Cc2c(-c3ccc(C(N)=O)cc3)ccnc2O1 (centres undefined) | > 79 µM (inactive)
41 | Cc1cccc(C(C)C)c1NC(=O)C(C)OC(=O)Cc1n[nH]c(=O)c2ccccc12 (centres undefined) | > 79 µM (inactive)
42 | COc1ccc(/C=N/NC(=O)c2cccnc2)cc1CSc1nc2ccccc2s1 | 12.2 µM
43 | COC(=O)c1cc(OC)c(OC)cc1NC(=O)c1ccc(OC)c(OC)c1 | > 79 µM (inactive)
44 | CC(OC(=O)Cc1n[nH]c(=O)c2ccccc12)C(=O)Nc1ccccc1[N+](=O)[O-] (centres undefined) | 49.1 µM (inactive)
45 | COc1cc(-c2cnc3c(NC=O)cc(-c4cccnc4)cn23)cc(OC)c1OC | 30 µM
46 | O=C(CNC(=O)c1nc[nH]c1C(=O)NCc1ccccc1)OCc1ccccc1 | > 79 µM (inactive)
47 | Cc1ccccc1C(C(=O)NCc1ccccc1)N(Cc1ccco1)C(=O)c1ccccn1 (centres undefined) | 23.9 µM
48 | CCN(CC)CCn1c2c(c(SCC(=O)Nc3cccc(C(C)=O)c3)nc1=O)CCCC2 | 13.1 µM

Row | SMILES | IC50
49 | O=C(COC(=O)Cn1[nH]c(=O)c2ccccc2c1=O)NNC(=O)c1ccc(Br)cc1 | > 79 µM (inactive)
50 | Cc1cc(C)cc(OCC(=O)Nc2cccc(-c3nc4ncccc4o3)c2)c1 | > 79 µM (inactive)
51 | O=c1[nH]n(Cc2ccccc2)c(=O)c2ccccc12 | > 79 µM (inactive)
52 | O=C1Nc2cnc(Cl)nc2Nc2ccccc21 | > 79 µM (inactive)
53 | COc1cc(C(=O)Nc2ccc(NC(=O)c3cccc(Cl)c3)nc2)cc(OC)c1OC | 13.8 µM
54 | CSc1nc2sc3c(c2c(=O)[nH]1)CCC3 | > 79 µM (inactive)
55 | O=C(CN1CCN(c2ccccc2F)CC1)c1ccc(O)c(O)c1 | > 79 µM (inactive)
56 | Cc1[nH]c2ccccc2c1/C=N/NC(=O)c1cc(-c2ccccc2)n[nH]1 | > 79 µM (inactive)
57 | CC(=O)c1cccc(Nc2nc3ccccc3n3cnnc23)c1 | > 79 µM (inactive)
58 | O=C1Nc2ccccc2C(=O)C1(Cl)Cc1ccccc1 (centres undefined) | > 79 µM (inactive)
59 | O=c1[nH]c2ccccc2n1CCCN1CCC(n2c(=O)[nH]c3cc(Cl)ccc32)CC1 | > 79 µM (inactive)
60 | CCOc1cc(/C=C(\C#N)C(=O)Nc2ccc(S(N)(=O)=O)cc2)ccc1OCCN1CCOCC1 | > 79 µM (inactive)
61 | NC(=O)c1nsc(C(=O)N(CCc2ccccc2)C(C(=O)NC2CCCC2)c2ccco2)c1N (centres undefined) | 22.4 µM
62 | O=C(Nc1nc(-c2ccccn2)cs1)c1cc(S(=O)(=O)N2CCOCC2)ccc1F | > 79 µM (inactive)
63 | COc1ccc(OCC(O)Cn2c(Nc3cccc(C)c3)nc3c2c(=O)n(C)c(=O)n3C)cc1 (centres undefined) | > 79 µM (inactive)
64 | C[C@@H]1CN([C@H](C)CO)S(=O)(=O)c2ccc(C#Cc3ccccc3F)cc2O[C@H]1CN(C)C(=O)c1ccc2c(c1)OCO2 | > 79 µM (inactive)
65 | CC(C)(C)OC(=O)CNC(=O)c1[nH]cnc1C(=O)Nc1ccc(CNC(=O)OC(C)(C)C)cc1 | > 79 µM (inactive)
66 | CC(=O)Nc1ccc(-c2csc(NC(=O)Nc3ccccc3)n2)cc1 | 36.3 µM (inactive)
67 | CCOC(=O)c1ccccc1NC(=O)CSc1ccc(-c2ccccn2)nn1 | 23.4 µM
68 | Cn1c(=O)[nH]c(=O)c2c1nc(NCCc1ccccc1)n2CC(O)COc1ccccc1 (centres undefined) | > 79 µM (inactive)
69 | Nc1ncc(-c2ccccc2)n1CC1CCCO1 (centres undefined) | > 79 µM (inactive)
70 | O=C(CCc1nc2ccccc2c(=O)[nH]1)NNC(=O)c1cccc(Cl)c1 | > 79 µM (inactive)
71 | CCN(CC)C(=O)c1ccc2c3c(cccc13)C(=O)N(CCc1ccc(OC)c(OC)c1)C2=O | 11.5 µM
72 | COC(=O)c1ccccc1S(=O)(=O)N(Cc1ccco1)Cc1cc2cc(OC)ccc2[nH]c1=O | 15.4 µM

Row | SMILES | IC50
73 | CN(C)C(=O)CSc1nc2ccccc2c(=O)[nH]1 | > 79 µM (inactive)
74 | Cn1c(=O)[nH]c(=O)c2c1nc(Br)n2CC(O)COc1ccc(Cl)cc1 (centres undefined) | 15.2 µM
75 | O=C(NN=Cc1cccc([N+](=O)[O-])c1)c1cc(-c2cccnc2)nc2ccccc12 | > 79 µM (inactive)
76 | CCn1c(O)c(/C=N/N=C2CCCCC2)c2cc(C3=NNC(=O)CC3)ccc21 | 12.5 µM
77 | CCOC(=O)C1CCN(C(c2cc3c(C)ccc(C)c3[nH]c2=O)c2nnnn2C2CCCCC2)CC1 (centres undefined) | > 79 µM (inactive)
78 | COc1ccc(C(C(=O)NCc2ccccc2)N(Cc2ccco2)C(=O)c2snc(C(N)=O)c2N)cc1 (centres undefined) | > 79 µM (inactive)
79 | O=S(=O)(c1ccc(Cl)cc1)c1cc(O)ccc1O | > 79 µM (inactive)
80 | Cc1c(Cl)cccc1NC(=O)CNC(=O)Cc1n[nH]c(=O)c2ccccc12 | > 79 µM (inactive)
81 | O=C1OCCN1C(=O)[C@H]1[C@H](c2ccc([N+](=O)[O-])cc2)C(c2cccc(Cl)c2)=NN1c1ccc(Br)cc1 | > 79 µM (inactive)
82 | Cn1nc(C(=O)Nc2nc(-c3ccccn3)cs2)c2ccccc2c1=O | 39.6 µM (inactive)
83 | COc1cccc(Nc2nc3ccccc3n3cnnc23)c1 | 12.5 µM
84 | CN(CC(=O)Nc1c(Cl)cccc1Cl)C(=O)Cn1[nH]c(=O)c2ccccc2c1=O | > 79 µM (inactive)
85 | CC(OC(=O)c1cc2c(ccc3ccccc32)oc1=O)c1nc2ccccc2s1 (centres undefined) | 15.7 µM
86 | COc1ccc(-c2cnc3c(NC=O)cc(-c4cccc(NS(C)(=O)=O)c4)cn23)cc1OC | 14.4 µM
87 | O=C(N/N=C/c1ccccn1)c1cc(-c2ccncc2)nc2ccccc12 | > 79 µM (inactive)
88 | Cc1cc(O)c(C=Nc2ccc(N3CCOCC3)cc2)c(C)c1Cl | > 79 µM (inactive)
89 | COc1ccc(OCC(=O)NCc2n[nH]c(=O)c3ccccc23)cc1 | > 79 µM (inactive)
90 | COc1ccccc1-c1cc(NC(C)=O)c2ncc(-c3cccc(C(C)=O)c3)n2c1 | 13.5 µM
91 | COc1ccc(C=NNc2nc3c([nH]2)c(=O)n(C)c(=O)n3C)cc1 | > 79 µM (inactive)
92 | COc1ccc(Nc2nnc(-c3ccc(O)cc3)c3ccccc23)cc1C(N)=O | > 79 µM (inactive)
93 | Cc1ccc(N=Cc2cc(Cl)cc(Cl)c2O)nc1 | > 79 µM (inactive)
94 | Cn1c2c(c(=O)n(C)c1=O)C(c1ccc(Br)cc1)Nc1ccccc1O2 (centres undefined) | > 79 µM (inactive)
